The results in this text go back to publication PMC8794255, “Small molecule inhibitor of Igf2bp1 represses Kras and a pro-oncogenic phenotype in cancer cells” (RNA Biology, 2021).

Experiment [1] relates to LKR-M cells overexpressing human Igf2bp1-GFP. The experiment can be described thus: Wound healing assay, LKR-M cells expressing human Igf2bp1-GFP. It counts as cell-based, mouse. The conditions noted are these: 20 μM 7773 vs DMSO. On the procedure:
Cells were seeded in 96 IncuCyte® ImageLock plates (20X10^3 cells per well) for 24 hours, to a near confluency of 95%, before the addition of increasing concentrations of compound. After a further 24 hours, wells were scratched using the IncuCyte® 96-well WoundMaker Tool, and the cells cultured for an additional 48 hours using the IncuCyte® S3 Live-Cell Analysis System (Essen BioScience). The plate was imaged at increments of 120 minutes for a period of 48 hours, and then analysed for relative wound healing.

In experiment [2] the test system is Kras protein in H1299 cells. The experiment can be described thus: Western blot of Kras protein in H1299 cells. It counts as cell-based, human. The conditions noted are these: H1299, 10 and 20 μM 7773, 48 hours. The procedure:
Western blots were performed as described. For fluorescent westerns, cell lysates were prepared with phosphatase inhibitors (β-Glycerophosphate and Sodium orthovanadate) and a protease inhibitor (cOmplete™, Mini Protease Inhibitor Cocktail, Roche 04693124001), membranes were read using a Li-Core Odyssey laser scanner, and results analysed using Image Studio Lite software.
The following primary antibodies were used: mouse anti-total ERK (p44/42 MAPK (Erk1/2) L34 F12 Cell Signalling 4696s), mouse anti-Kras (CPTC-KRAS4B-2, DSHB) rabbit anti-dpERK, (p44/42 MAPK, Cell Signalling 4370), rabbit anti-alpha/beta tubulin (Cell Signalling 2148), goat anti-rabbit IgG-HRP (Jackson), goat anti-mouse IgG-HRP (Jackson). Secondary antibodies for fluorescent westerns: donkey anti-mouse 800 (Rockland 610–732-124), goat anti-rabbit 680 (Molecular Probes A21076).

As to `O=C(c1ccc(Cn2cnnn2)cc1)N1CCCC(Nc2ccc3c(c2)OCO3)C1` (centres unmarked) [compound 7773], the “Effect on Igf2bp1-GFP-enhanced wound healing” value in experiment [1] is on record as “significantly inhibited”. For the same compound, in experiment [2], the Kras protein level result is listed as “dose-dependent reduction”.
